Measurements from patent US5756510A, “Benzamide analogs useful as PARP (ADP-ribosyltransferase, ADPRT) DNA repair enzyme inhibitors” (Newcastle University Ventures Limited, priority 1994, dated 1998).
Like-named read-outs stand apart in the source and are kept apart here.

Key:
PARP = molecular target: T1, PARP (Mus musculus, UniProt P11103); test: PARP inhibition assay ([32P]-NAD incorporation into TCA-precipitated poly(ADP-ribose) in permeabilised L1210 cells, oligonucleotide activated); type: biochemical, L1210 murine leukaemia cells
T1 construct: endogenous in cells; host or cells: L1210 murine leukaemia cells, permeabilised by hypotonic buffer and cold shock
T1 sequence (P11103 whole entry): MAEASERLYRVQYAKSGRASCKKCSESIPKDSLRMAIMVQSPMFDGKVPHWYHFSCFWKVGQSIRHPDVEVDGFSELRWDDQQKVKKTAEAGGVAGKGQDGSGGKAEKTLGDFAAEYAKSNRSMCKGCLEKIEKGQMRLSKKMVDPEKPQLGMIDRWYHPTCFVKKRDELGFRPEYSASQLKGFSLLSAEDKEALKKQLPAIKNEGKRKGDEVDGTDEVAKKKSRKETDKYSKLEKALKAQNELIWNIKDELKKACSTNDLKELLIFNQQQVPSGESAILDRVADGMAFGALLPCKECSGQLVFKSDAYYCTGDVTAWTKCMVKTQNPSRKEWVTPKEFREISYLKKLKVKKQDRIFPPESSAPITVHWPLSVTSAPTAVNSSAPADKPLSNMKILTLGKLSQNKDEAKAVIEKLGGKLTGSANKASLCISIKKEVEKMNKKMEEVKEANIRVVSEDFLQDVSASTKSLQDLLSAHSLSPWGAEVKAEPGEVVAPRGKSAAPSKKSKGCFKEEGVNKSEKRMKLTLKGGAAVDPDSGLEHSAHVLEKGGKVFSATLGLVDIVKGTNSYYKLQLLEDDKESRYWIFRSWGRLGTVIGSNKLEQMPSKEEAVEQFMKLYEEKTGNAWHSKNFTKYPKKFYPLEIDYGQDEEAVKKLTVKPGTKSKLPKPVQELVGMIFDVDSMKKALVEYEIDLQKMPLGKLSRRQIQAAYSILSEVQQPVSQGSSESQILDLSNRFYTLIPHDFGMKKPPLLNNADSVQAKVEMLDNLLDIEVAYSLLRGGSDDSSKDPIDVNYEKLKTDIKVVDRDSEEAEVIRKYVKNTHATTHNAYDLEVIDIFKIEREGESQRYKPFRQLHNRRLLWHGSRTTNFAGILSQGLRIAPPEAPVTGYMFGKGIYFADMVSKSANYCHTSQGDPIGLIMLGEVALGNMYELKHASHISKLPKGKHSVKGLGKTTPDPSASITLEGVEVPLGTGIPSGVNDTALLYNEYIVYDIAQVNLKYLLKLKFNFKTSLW
Excerpt: In principle, the PARP assay used relies upon activating endogenous PARP (as hereinafter described) in cells containing exogenous [^32 P]-NAD^+ introduced therein by suspending the cells in a solution of [^32 P]-NAD^+ to which they have been rendered permeable in an initial pretreatment step. The poly(ADP-ribose) which is then synthesised by the enzyme can be precipitated by trichloracetic acid (TCA) and the amount of radio-labelled ^32 p incorporated therein measured, e.g. using a scintillation counter, to give a measure of the activity of the PARP under the particular conditions of the experiment. By repeating the experiment following the same procedure, and under the same conditions, in the presence of each compound to be tested the reduction in enzyme activity, representative of the inhibitory effect of the test compound, can then be ascertained from the reduction, if any, of the amount of [^32 P] measured in the TCA precipitated poly(ADP-ribose).
Thus, with a range of different compounds a set of comparative values for inhibitory activity can be obtained.
In practice, L1210 murine leukaemia cells were used as the source of the PARP enzyme after being rendered permeable to exogenous [^32 P]NAD by exposure to hypotonic buffer and cold shock. […] This oligonucleotide sequence snaps back on itself to form a double-stranded molecule with a single blunt end and provides an effective substrate for activation of PARP.
The experimental protocol adopted, in which a synthetic oligonucleotide as mentioned above is introduced as a specific activator of PARP, discriminates between PARP and other mono-ADP-ribosyltransferases in the cells.
The oligonucleotide having the palindromic sequence […], synthesised by conventional means, was vacuum dried and stored as pellets in a freezer. Before use, it was made up to 200 μg/ml in 10 mM Tris/HCl, pH 7.8, with each pellet being dissolved completely in […] of buffer. The solution was then heated to 60° C. in a water bath for 15 minutes, and allowed to cool slowly to ensure correct reannealing. After adding 9.5 ml of buffer, the concentration was checked by measuring the optical density of a diluted sample at 260 nm. The main solution was then diluted to a concentration of 200 μg/ml and stored in 500 μl aliquots in a freezer, ready for use.
The L1210 cells used as the source of the PARP enzyme were maintained as a suspension culture in RPMI medium+10% foetal bovine serum+glutamine and antibiotics (penicillin and streptomycin). HEPES and sodium bicarbonate were also added, and the cells were seeded in 100 ml of medium such that there would be a concentration of approximately 8×10^5 /ml at the time of carrying out an assay.
(§1) The solubility of the compound was then checked by adding a quantity of the DMSO solution to a quantity of the isotonic buffer, in the required final proportions that were to be used in carrying out the assay, and after an interval the solution was examined under a microscope for any signs of crystals forming.
A desired quantity of the cells, ascertained by counting with a haemocytometer, was then centrifuged (1500 rpm in a "Europa" model 24M centrifuge for 5 minutes), the supernatant removed, and the pellets obtained were resuspended in 20 ml Dul A at 4° C. before centrifuging again at 1500 rpm and 4° C. After again removing the supernatant, the cells were resuspended at a concentration of 3×10^7 cells/ml in ice cold hypotonic buffer and left for 30 minutes on ice. Nine volumes were then added of ice cold isotonic buffer, and the cells, now rendered permeable to exogenous NAD^+, were then used within the next hour for carrying out an assay.

[1] = solubility check of test compound in assay buffer (DMSO solution added to isotonic buffer, microscope); type: physicochemical
Excerpt: as §1, with “The compounds being tested were generally made up as a concentrated solution in DMSO (Dimethyl sulphoxide). The” for “The”

[2] = 10 μM, read-out: % Inhibition (PARP)
[3] = 30 μM, read-out: % Inhibition (PARP)
[4] = 100 μM, read-out: % Inhibition (PARP)
[5] = unit printed broken, attached to the next cell
[6] = read-out: % Inhibition (PARP), 10 μM
[7] = read-out: % Inhibition (PARP), 30 μM

inhibition at 10 µM (PARP; [2]) [%]	inhibition at 30 µM (PARP; [3]) [%]	inhibition at 100 µM (PARP; [4]) [%]	Compound	other results
18	45	66	CCCCCOc1cccc(C(N)=O)c1 [NU1039, 3-pentyloxybenzamide]	
			Cc1nc2c(C(N)=O)cccc2o1 [NU1056, 2-Methylbenzoxazole-4-carboxamide]	IC50 (PARP): 9500 nM; PARP inhibitory activity in words (PARP): relatively high inhibitory activity even at low concentrations
58	74		COc1ccc(COc2cccc(C(N)=O)c2)cc1 [NU1006, 3-(4-methoxybenzyloxy)benzamide]	insolubility at assay concentration ([1]; 100 μM): insol.
			CCCCCCCCOc1cccc(C(N)=O)c1 [NU1045, 3-octyloxybenzamide]	insolubility at assay concentration ([1]; 10 μM): insol.; insolubility at assay concentration ([1]; 30 μM): insol.; insolubility at assay concentration ([1]; 100 μM): insol.
			NC(=O)c1cccc(OCc2ccccc2[N+](=O)[O-])c1 [NU1042, 3-(2-Nitrobenzyloxy)benzamide]	insolubility at assay concentration ([1]; 10 μM): insol.; insolubility at assay concentration ([1]; 30 μM): insol.; insolubility at assay concentration ([1]; 100 μM): insol.
78	87	95	O=c1[nH]cnc2c(O)cccc12 [NU1026, 8-hydroxyquinazolin-4-[3H]one]	PARP inhibitory activity in words (PARP): quite strong PARP inhibitory activity; inhibition at 0.5 µM (PARP; 0.5 μM): 18%; inhibition at 1 µM (PARP; 1 μM (1.0 μM)): 38%; inhibition at 2 µM (PARP; 2.0 μM): 54%; IC50 (PARP; [5]): 2000 nM
23	36		NC(=O)c1cccc(OCc2ccc(Br)cc2)c1 [NU1014, 3-(4-Bromobenzyloxy)benzamide]	insolubility at assay concentration ([1]; 100 μM): insol.
			Cc1nc2c(C)cccc2c(=O)[nH]1 [NU1069, 2,8-Dimethylquinazolin-4-[3H]-one]	IC50 (PARP): 200 nM; PARP inhibitory activity in words (PARP): potent PARP inhibitors
30			NC(=O)c1cccc(OCCCCCCCCn2cnc3c(Cl)ncnc32)c1 [NU1027, 3-[8-(6-chloropurin-9-yl)octyloxy]benzamide]	insolubility at assay concentration ([1]; 30 μM): insol.; insolubility at assay concentration ([1]; 100 μM): insol.
3	13	10	NC(=O)c1cccc(OCc2ccc(C(F)(F)F)cc2)c1 [NU1036, 3-(4-Trifluoromethylbenzyloxy)benzamide]	
51	70	93	NC(=O)c1cccc(OCc2ccc3c(c2)OCO3)c1 [NU1020, 3-(Piperonyloxy)benzamide]	
			COc1cccc2c(=O)[nH]c(-c3ccccc3)nc12 [NU1065, 8-Methoxy-2-phenylquinazolin-4-[3H]-one]	IC50 (PARP): 4200 nM
30	50	72	NC(=O)c1cccc(OCCc2ccccc2)c1 [NU1048, 3-(Phenethyl)oxybenzamide]	
26	45	71	NC(=O)c1cccc(OCCCCCn2cnc3c(Cl)ncnc32)c1 [NU1023, 3-[5-(6-Chloropurin-9-yl)pentyloxy]benzamide]	
			COc1ccc(-c2nc3c(C(N)=O)cccc3o2)cc1 [NU1054, 2-(4-Methoxyphenyl)benzoxazole-4-carboxamide]	IC50 (PARP): 1100 nM; PARP inhibitory activity in words (PARP): relatively high inhibitory activity even at low concentrations
	54	81	NC(=O)c1cccc(OCCCCCBr)c1 [NU1019, 3-(5-Bromopentyloxy)benzamide]	
40	66	84	NC(=O)c1cccc(OCc2ccc(N)cc2)c1 [NU1016, 3-(4-aminobenzyloxy)benzamide]	

inhibition at 10 µM (PARP; [2]) [%]	inhibition at 30 µM (PARP; [3]) [%]	inhibition at 100 µM (PARP; [4]) [%]	Compound	other results
			O=c1[nH]c(-c2ccccc2)nc2c(O)cccc12 [NU1068, 8-Hydroxy-2-phenylquinazolin-4-[3H]-one]	IC50 (PARP): 530 nM; PARP inhibitory activity in words (PARP): potent PARP inhibitors
49	70	84	CC(=O)Nc1ccc(COc2cccc(C(N)=O)c2)cc1 [NU1030, 3-(N-acetyl-4-aminobenzyloxy)benzamide]	
			COC(=O)c1ccc(COc2cccc(C(N)=O)c2)cc1 [NU1041, 3-(4-carboxymethylbenzyloxy)benzamide]	insolubility at assay concentration ([1]; 10 μM): insol.; insolubility at assay concentration ([1]; 30 μM): insol.; insolubility at assay concentration ([1]; 100 μM): insol.
87	88	93	CC(C)(C)c1nc2c(C(N)=O)cccc2o1 [NU1040, 2-t-butylbenzoxazole-4-carboxamide]	PARP inhibitory activity in words (PARP): relatively high inhibitory activity even at low concentrations; IC50 (PARP; [5]): 8400 nM
16	42	67	NC(=O)c1cccc(OCCCCCn2cnc3c(N)ncnc32)c1 [NU1024, 3-(5-Adenos-9-ylpentyloxy)benzamide]	
		76	NC(=O)c1cccc(OCc2ccccc2)c1 [NU1005, 3-benzyloxybenzamide]	inhibition at 10 µM (PARP; [6]): 34%; inhibition at 30 µM (PARP; [7]): 60%
30			NC(=O)c1cccc(OCCCCCCCCn2cnc3c(N)ncnc32)c1 [NU1022, 3-(8-adenos-9-yloctyloxy)benzamide]	
21	58	80	C=CCOc1cccc(C(N)=O)c1 [NU1031, 3-Allyloxybenzamide]	
			[N-]=[N+]=Nc1ccc(COc2cccc(C(N)=O)c2)cc1 [NU1013, 3-(4-Azidobenzyloxy)benzamide]	inhibition at 10 µM (PARP; [6]): 49%; inhibition at 30 µM (PARP; [7]): 28%; inhibition at 100 µM (PARP; read-out: % Inhibition (PARP), 100 μM): 43%
26	51	74	NC(=O)c1cccc(OCCCCCCCCCCCCn2cnc3c(N)ncnc32)c1 [NU1029, 3-(12-adenos-9-yldodecyloxy)benzamide]	
55	78	89	COc1cccc(C(N)=O)c1 [3-methoxybenzamide, reference compound]	
			CGGAATTCCG: small synthetic single strand oligonucleotide having the palindromic sequence CGGAATTCCG (chemistry not given here) [reference compound]	activation of PARP in words (PARP): potent activator of the enzyme
35	59	81	NC(=O)c1cccc(O)c1 [3-hydroxybenzamide, reference compound]	
66		94	NC(=O)c1cccc2c1OCO2 [NU1034, 2,3-methylenedioxy benzamide]	IC50 (PARP; [5]): 5300 nM
82			NC(=O)c1cccc2oc(-c3ccccc3)nc12 [NU1051, 2-Phenylbenzoxazole-4-carboxamide]	IC50 (PARP): 2100 nM; PARP inhibitory activity in words (PARP): relatively high inhibitory activity even at low concentrations
			COc1cccc2c(=O)[nH]c(C)nc12 [NU1063, 8-Methoxy-2-methylquinazolin-4-[3H]-one]	IC50 (PARP): 780 nM; PARP inhibitory activity in words (PARP): potent PARP inhibitors

Compound	inhibition at 10 µM (PARP; [2]) [%]	inhibition at 30 µM (PARP; [3]) [%]	inhibition at 100 µM (PARP; [4]) [%]	other results
CCCCOc1cccc(C(N)=O)c1 [NU1038, 3-butoxybenzamide]	23	50	78	
